In ChEMBL document CHEMBL1122776, “Synthesis and antitumor activity of some aromatic seleno lactones” (J Med Chem, 1984) one finds CC50 data, which are given here for eight molecules.

Each structure is given as a SMILES string.

What all share (format): cell-based
Common to all, as to conditions: read-out: LD50

Data set [1] is described as follows: In vitro cytotoxic activity against of human colon tumor-8r cells in culture and LD50 was reported at the end of incubation period of 24 hours.
A short description of data set [2]: In vitro cytotoxic activity against human colon tumor-8r cells in culture and LD50 was reported at the end of incubation period of 48 hours.
A short description of data set [3]: In vitro cytotoxic activity against human colon tumor-8r cells in culture and LD50 was reported at the end of incubation period of 72 hours.
Data set [4] in a line: In vitro cytotoxic activity against human colon tumor-8r cells in culture and LD50 was reported at the end of incubation period of 24 hours.
The nature of data set [5]: In vitro cytotoxic activity against of human colon tumor-8r cells in culture and LD50 was reported at the end of incubation period of 72 hours.
Data set [6] in a line: In vitro cytotoxic activity against of human colon tumor-8r cells in culture and LD50 was reported at the end of incubation period of 48 hours.

In the case of `CC(=O)Oc1cccc2c1CC(C[Se]c1ccccc1)C(=O)O2` (centres undefined), the CC50 at 24 h in data set [1] came out at 290 µM. Moreover, in data set [2], the CC50 at 48 h was 240 µM. Further, the CC50 at 72 h in data set [3] worked out at 180 µM.
For the molecule `CCCCCCCCCC(=O)Oc1cccc2c1CC(C[Se]c1ccccc1)C(=O)O2` (centres undefined), the CC50 at 24 h in data set [4] was 230 µM. Also, the CC50 at 48 h in data set [2] amounted to 150 µM. In addition, the CC50 at 72 h in data set [3] worked out at 140 µM.
As to `CCC(=O)Oc1cccc2c1CC(C[Se]c1ccccc1)C(=O)O2` (centres undefined), the CC50 at 72 h in data set [5] amounted to 210 µM. In data set [4], the CC50 at 24 h is 310 µM. For the same molecule, in data set [6], the CC50 at 48 h was determined as 250 µM.
`O=C1Oc2cccc(OC3CCCCO3)c2CC1C[Se]c1ccccc1` (centres undefined): in data set [4], the CC50 at 24 h worked out at 260 µM. Also, the CC50 at 48 h in data set [2] came out at 190 µM. Also, the CC50 at 72 h in data set [3] stood at 150 µM.
`CCCCCCCC(=O)Oc1cccc2c1CC(C[Se]c1ccccc1)C(=O)O2` (centres undefined): the CC50 at 72 h in data set [5] turned out to be 180 µM. Further, the CC50 at 24 h in data set [1] turned out to be 300 µM. Besides, the CC50 at 48 h in data set [6] came to 230 µM.
In the case of `O=C1Oc2cccc(O)c2CC1C[Se]c1ccccc1` (centres undefined), in data set [4], the CC50 at 24 h was determined as 330 µM. In data set [2], the CC50 at 48 h came to 280 µM. Moreover, in data set [3], the CC50 at 72 h came to 230 µM.
Taken in the same sequence, the figures for `CCCC(=O)Oc1cccc2c1CC(C[Se]c1ccccc1)C(=O)O2` (centres undefined) were 370 µM, 270 µM and 320 µM.
Taken in the same sequence, the figures for `Sc1ncnc2nc[nH]c12` [MERCAPTOPURINE ANHYDROUS] were 760 µM, 350 µM and 280 µM.
